Assay results: patent US20040166079A1, “N-Lauroyl amino acid composition for slimming the human body” (priority 2003, published 2004)

Experiments:
[1] = target: T1, human recombinant MMP-2 (Homo sapiens, UniProt P08253); test: Measurement of the activity of metalloproteinase MMP-2 (DQ-gelatin fluorescence); type: biochemical; conditions: incubation concentration 0.1 % DE; relative to the control
T1 construct: purchased CALBIOCHEM PF023
T1 sequence (P08253 110-660): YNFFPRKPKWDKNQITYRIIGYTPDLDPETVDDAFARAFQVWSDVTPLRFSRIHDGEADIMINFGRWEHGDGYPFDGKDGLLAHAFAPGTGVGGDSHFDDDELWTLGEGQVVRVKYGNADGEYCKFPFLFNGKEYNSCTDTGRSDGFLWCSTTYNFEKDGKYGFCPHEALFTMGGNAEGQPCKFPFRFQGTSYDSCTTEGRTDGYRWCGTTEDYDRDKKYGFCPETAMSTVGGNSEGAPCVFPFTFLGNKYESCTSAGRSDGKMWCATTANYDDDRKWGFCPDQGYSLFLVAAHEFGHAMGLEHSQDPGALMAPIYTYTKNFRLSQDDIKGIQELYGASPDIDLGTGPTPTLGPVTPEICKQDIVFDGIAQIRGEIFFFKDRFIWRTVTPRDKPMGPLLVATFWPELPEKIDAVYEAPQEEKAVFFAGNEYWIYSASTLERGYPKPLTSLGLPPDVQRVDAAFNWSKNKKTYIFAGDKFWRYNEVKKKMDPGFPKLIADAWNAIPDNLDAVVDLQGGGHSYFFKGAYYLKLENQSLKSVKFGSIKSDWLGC
Procedure: (§1) The objective of this test is to evaluate the inhibitory capacity of a product on the enzymatic activity of MMP-2 and MMP-9. This test is based on an enzymatic reaction between purified MMP-2 or MMP-9 and a specific substrate containing a chromophore. The degradation of the chromogenic substrate by the enzyme leads to the production of fluorescence monitored by fluorimetry.
(§2) (ii)—A human recombinant MMP-2 (CALBIOCHEM, PF023) is incubated, at 0.1 μg/ml, in the presence of the product and the chromogenic substrate, DQ-gelatin conjugated with fluorescein (MOLECULAR PROBE, D12054) at 10 μg/ml. The reaction mixture is incubated overnight at room temperature, protected from light. The quantity of DQ-gelatin degraded is measured by fluorescence (Ex: 355 nm; Em: 460 nm).
(§3) The reactivity of the enzymatic system is systematically monitored for the measurement of the effect of a metalloproteinase inhibitor, 1,10-phenanthroline. The results are presented in the following table, as a percentage inhibition of the enzymatic activity of MMP-2 and MMP-9 relative to the control.

[2] = target: T2, human recombinant MMP-9 (Homo sapiens, UniProt P14780); test: Measurement of the activity of metalloproteinase MMP-9 (DQ-gelatin fluorescence); type: biochemical; conditions: incubation concentration 0.1 % DE; relative to the control
T2 construct: purchased CALBIOCHEM PF024
T2 sequence (P14780 107-707 limits assumed): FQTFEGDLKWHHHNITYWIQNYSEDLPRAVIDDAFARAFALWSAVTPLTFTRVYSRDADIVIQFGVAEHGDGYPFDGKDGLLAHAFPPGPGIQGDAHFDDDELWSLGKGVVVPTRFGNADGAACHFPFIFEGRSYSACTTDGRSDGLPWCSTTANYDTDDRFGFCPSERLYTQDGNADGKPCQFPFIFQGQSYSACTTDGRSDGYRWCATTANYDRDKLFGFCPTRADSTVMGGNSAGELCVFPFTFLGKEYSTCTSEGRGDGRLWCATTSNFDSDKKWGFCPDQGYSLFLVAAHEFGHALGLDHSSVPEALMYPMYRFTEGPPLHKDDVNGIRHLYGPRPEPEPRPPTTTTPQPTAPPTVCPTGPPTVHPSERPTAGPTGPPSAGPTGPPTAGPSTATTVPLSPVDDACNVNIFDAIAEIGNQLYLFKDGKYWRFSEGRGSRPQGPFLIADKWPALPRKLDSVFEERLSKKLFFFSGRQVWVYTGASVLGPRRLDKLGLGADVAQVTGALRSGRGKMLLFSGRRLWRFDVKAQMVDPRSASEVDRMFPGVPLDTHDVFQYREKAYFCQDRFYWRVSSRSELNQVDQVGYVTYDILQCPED
Procedure: as §1
as §2, with “(i)—A” for “(ii)—A”, “MMP-9” for “MMP-2”, “PF024)” for “PF023)”, “0.05” for “0.1”
as §3

[3] = tested on: human adipocytes; test: Assay of the free fatty acids (lipolytic activity) in isolated human adipocytes in suspension; type: cell-based; conditions: incubation concentration 0.0019 wt % DE
Excerpt: Hydrolysis of the triglycerides to nonesterified fatty acids and glycerol is called lipolysis. Triglycerides are stored in the adipocytes and constitute the fat reserve. For this reserve to diminish, which is the desired aim when slimming products are used, the triglycerides should be hydrolysed in the form of fatty acids, which in their case can be removed from the cell. Hydrolysis of the triglycerides calls into play a hormone-dependent lipase which must be phosphorylated in order to be active. The phosphorylation step uses a kinase and cAMP. An increase in the cAMP content of the adipocytes is necessary for promoting the activity of the lipase and therefore the lipolysis. The method described consists in incubating the products in the presence of human adipocytes in suspension, followed by […].
The test is carried out using human adipocytes isolated and prepared as a cellular suspension. The adipocytes are isolated from the subcutaneous abdominal adipose tissue recovered during plastic surgery operations (abdominal plastic surgery operations) performed on women. The cells are isolated from fresh tissue. The adipose tissue is isolated and dissociated by the action of a collagenase (SIGMA™, 1 mg/ml, 30 minutes at 37° C., gentle stirring). Collagenase digests the connective tissue present in the adipose tissue. After digestion, the cells are filtered and washed in an appropriate culture medium containing MEM medium free of phenol red, free of glutamine (SIGMA)+2.2 mg/ml of sodium bicarbonate (GIBCO)+50 IU of penicillin (BIOWHITTAKER™)+50 μg/ml of streptomycin (BIOWHITTAKER™)+1% (v/v) of L-glutamine (BIOWHITTAKER™)+0.5% of lipid-free serum albumin (SIGMA™). The adipocyte suspension is used immediately after its preparation.
The test products are diluted in the adipocyte culture medium. They are incubated with the cells in suspension for two hours at 37° C. (250 μl of product+250 μl of adipocyte suspension).
After the incubation, the cell lysis is checked visually by the presence of a lipid layer at the surface of the cellular suspension. The supernatant media are collected. The free fatty acids are assayed by spectrophotometry using a commercial kit (NEFA™ C kit, WAKO), with reference to a fatty acid calibration series. The lypolytic activity of the products is evaluated relative to a control group incubated in the presence of adipocytes and in the absence of product. […] Five assays are performed for each of the test products which are as follows:
This assay is repeated by carrying out new assays at different concentrations.

Cn1c(=O)c2c(ncn2C)n(C)c1=O [Caffeine, 1,3,7-trimethyl-xanthine]
MMP-2 inhibiting effect [1]: 0%
MMP-9 inhibiting effect [2]: 0%
Free fatty acid concentration ([3]; 2 h at 37° C., mean of five assays): 15.10 ± 4.11 µM
Lipolytic activity (compared with the control = 100) ([3]; control = 100): 131
